# Laboratory results published in publication PMC6838683, “Discovery of Human Signaling Systems: Pairing Peptides to G Protein-Coupled Receptors” (Cell, 2019).
# Experiments:
# Assay type in all cases: cell-based
# BB3 [1] = molecular target: T1, BB3 (Homo sapiens, UniProt P32247); assay: Dynamic mass redistribution (DMR), concentration-response; conditions: pEC50, DMR (peak), BB3; mean, SEM and n
# T1 construct: hIL-2Ra signal peptide (N); expressed in transfected cells
# T1 sequence (P32247 2-399 limits assumed): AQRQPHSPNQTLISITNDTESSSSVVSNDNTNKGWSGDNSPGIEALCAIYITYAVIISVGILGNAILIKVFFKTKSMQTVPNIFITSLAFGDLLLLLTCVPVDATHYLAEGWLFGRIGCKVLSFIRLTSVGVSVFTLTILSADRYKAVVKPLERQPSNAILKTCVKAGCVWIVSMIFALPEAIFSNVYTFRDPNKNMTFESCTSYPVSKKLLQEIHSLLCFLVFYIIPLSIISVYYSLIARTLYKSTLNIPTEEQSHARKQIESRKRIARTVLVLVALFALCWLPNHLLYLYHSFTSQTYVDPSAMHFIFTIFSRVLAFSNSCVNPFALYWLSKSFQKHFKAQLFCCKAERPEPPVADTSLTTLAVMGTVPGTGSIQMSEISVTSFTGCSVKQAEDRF
# BB3 [2] = molecular target: T1, BB3; assay: Real-time receptor internalization (TR-FRET), concentration-response; conditions: pEC50, Internalization (AUC)
# BB3 [3] = molecular target: T2, BB3 (Homo sapiens, UniProt P32247); assay: β-arrestin recruitment (Tango), validation; conditions: BB3; mean, SEM and n; read-out: pEC50, Tango (fold over basal) (converted)
# T2 construct: host or cells: HTLA cells (HEK293-derived)
# T2 sequence (P32247 1-399): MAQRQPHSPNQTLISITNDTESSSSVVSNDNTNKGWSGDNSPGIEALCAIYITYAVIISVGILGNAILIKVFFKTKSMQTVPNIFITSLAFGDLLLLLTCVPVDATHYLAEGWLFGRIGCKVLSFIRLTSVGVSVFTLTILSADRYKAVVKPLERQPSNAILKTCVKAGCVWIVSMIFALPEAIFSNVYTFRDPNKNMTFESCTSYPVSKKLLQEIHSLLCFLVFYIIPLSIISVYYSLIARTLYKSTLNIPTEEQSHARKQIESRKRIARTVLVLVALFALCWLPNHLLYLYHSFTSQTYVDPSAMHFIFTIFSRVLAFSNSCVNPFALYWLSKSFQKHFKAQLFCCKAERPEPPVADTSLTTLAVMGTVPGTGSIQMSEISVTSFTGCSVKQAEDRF
# Experimental: The peptide library was additionally screened against 120 GPCR targets in parallel, including all available orphan receptors and 27 known class A peptide receptors using the Tango assay platform ([Kroeze et al., 2015]). Briefly, HTLA cells (a HEK293 cell line stably expressing a tTA-dependent luciferase reporter and a β-arrestin2-TEV fusion gene) were plated 10,000 cells/well in poly-L-lysine–coated clear-bottom white 384-well plates in DMEM supplemented with 10% FBS, 100 U/ml penicillin and 100 μg/ml streptomycin, 2 μg/ml puromycin and 100 μg/ml hygromycin B. 24 hr later, cells were transfected with Tango GPCR constructs using the calcium phosphate method ([Jordan et al., 1996]). The next day, culture medium was changed to DMEM + 1% dFBS and 10 μM peptides were added for overnight stimulation. Bright-Glo solution (Promega) was incubated for 15–20 min at room temperature, and luminescence was counted using a Trilux luminescence counter (Wallac).
# For subsequent peptide validation experiments using Tango assays, HTLA cells were transiently transfected in 10 cm dishes with the receptor of interest using polyethylenimine (PEI) ([Longo et al., 2013]). After 24 hr, 25,000 cells/well were plated in clear bottom, white-walled 384-well plates. Assays were performed as described above, with luminescence measured using an EnSpire 2300 Multimode plate reader (PerkinElmer). Luminescence counts were exported into Excel and were analyzed using GraphPad Prism 7.
# BB3 [4] = molecular target: T1, BB3; assay: IP1 accumulation (Gq/11), HTRF; conditions: pEC50, IP1 (nM), BB3; mean, SEM and n
# GPR1 [5] = molecular target: T3, GPR1 (Homo sapiens, UniProt P46091); assay: β-arrestin recruitment (PathHunter); conditions: GPR1; mean, SEM and n; read-out: pEC50, PathHunter (fold over basal) (converted)
# T3 sequence (P46091 1-355): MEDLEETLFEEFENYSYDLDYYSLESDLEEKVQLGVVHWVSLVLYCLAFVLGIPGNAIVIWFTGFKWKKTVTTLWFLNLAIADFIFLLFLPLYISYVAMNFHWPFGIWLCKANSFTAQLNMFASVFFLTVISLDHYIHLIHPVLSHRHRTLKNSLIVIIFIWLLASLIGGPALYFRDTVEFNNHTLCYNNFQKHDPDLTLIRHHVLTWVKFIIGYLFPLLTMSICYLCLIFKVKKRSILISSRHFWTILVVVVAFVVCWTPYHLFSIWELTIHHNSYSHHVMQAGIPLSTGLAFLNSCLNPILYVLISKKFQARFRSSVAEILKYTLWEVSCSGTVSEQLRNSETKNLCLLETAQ
# Experimental: PathHunter eXpress Assays (DiscoverX) were performed in 384-well format according to the manufacturer’s recommendations. GPR1 cells were incubated with peptides for 90 min and luminescence measured using an EnSpire 2300 Multimode plate reader (PerkinElmer).
# GPR1 [6] = molecular target: T3, GPR1; assay: β-arrestin recruitment (Tango), validation; parameters: host or cells: HTLA cells (HEK293-derived); conditions: pEC50, Tango (fold over basal), GPR1; mean, SEM and n
# GPR68 [7] = molecular target: T4, GPR68 (Homo sapiens, UniProt Q15743); assay: Dynamic mass redistribution (DMR), concentration-response; parameters: hIL-2Ra signal peptide (N); expressed in transfected cells; conditions: receptor GPR68; mean, SEM and n (3-4)
# T4 sequence (Q15743 2-365 limits assumed): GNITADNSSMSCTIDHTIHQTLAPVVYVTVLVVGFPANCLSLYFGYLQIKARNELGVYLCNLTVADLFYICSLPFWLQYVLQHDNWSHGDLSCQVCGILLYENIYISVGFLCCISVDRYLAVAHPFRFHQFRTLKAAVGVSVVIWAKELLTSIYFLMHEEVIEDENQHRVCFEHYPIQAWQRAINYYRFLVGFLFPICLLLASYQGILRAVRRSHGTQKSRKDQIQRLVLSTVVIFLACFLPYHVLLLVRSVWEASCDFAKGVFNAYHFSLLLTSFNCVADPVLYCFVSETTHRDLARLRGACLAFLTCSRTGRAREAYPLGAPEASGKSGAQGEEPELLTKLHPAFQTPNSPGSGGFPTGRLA
# Experimental: (§1) 48 hr prior to parallel assaying, SNAP-tagged oGPCR cells were plated (10,000 cells/well) in fibronectin-coated 384-well Epic biosensor microplates (Corning) and poly-D-lysine coated white 384-well plates (for internalization assays). SNAP- GLP-1 receptor was plated alongside orphan receptor cells as an internal assay control for internalization assays. Receptor-expression was induced with 0.1 μg/ml doxycycline.
# DMR assays provide a single integrated readout of ligand-dependent cellular response, utilizing an optical biosensor in specialized microplates to detect wavelength shifts of reflected light as it passes through the biosensor and the lower portion of the cell (∼150-200 nm). As a signal pathway agnostic approach, DMR assays are well-suited to the study of GPCRs ([Fang et al., 2008], [Schröder et al., 2011]). The mass redistribution response (Δ picometer (pm)) likely reflects a number of intracellular events, including cytoskeletal rearrangement, protein trafficking and receptor internalization. Orphan receptor-expressing cells were gently washed twice with assay buffer (HBSS with 1 mM CaCl2, 1 mM MgCl2, 20 mM HEPES, 0.01% pluronic F-68, pH 7.4) containing 0.1% DMSO and cells were equilibrated for 90 min at 22°C in the EPIC Benchtop (BT) System (Corning) to establish a stable DMR signal. After 3-5 min baseline recordings, peptides (10 μM) were added in duplicate wells using an electronic 384-channel Viaflo pipette (Integra Biosciences, Switzerland) and DMR responses were measured for 60 min at 22°C. 100 nM norepinephrine was included as an internal assay control to assess the cellular DMR response via endogenously-expressed adrenoceptors in the TREx 293 cells. Real-time data were processed using the BT to column converter MS-Excel macro (Corning) and analyzed in GraphPad Prism 7.0. DMR recordings in peptide screening experiments were buffer and solvent corrected and the area under the curve (AUC) was quantified. For subsequent validation experiments, peptides were diluted in assay buffer containing 0.1% DMSO and DMR assays were performed as above. […] Data represent mean ± standard error of the mean (SEM) from at least 3 biologically independent experiments.
# GPR68 [8] = molecular target: T4, GPR68; assay: Real-time receptor internalization (TR-FRET), concentration-response; parameters: hIL-2Ra signal peptide (N); expressed in transfected cells; conditions: receptor GPR68; mean, SEM and n (3)
# Experimental: as §1
# A TR-FRET real-time internalization assay was used to examine peptide-dependent changes in orphan receptor localization as described previously ([Foster and Bräuner-Osborne, 2018]). Surface-expressed SNAP-tagged receptors were labeled with a cell-impermeable luminescent terbium cryptate (100 nM SNAP Lumi4-Tb; Cisbio, France) for 1 hr at 37°C. Cells were washed to remove excess terbium and incubated with fluorescein-O-acetic acid (100 μM; Sigma Aldrich) for 5 min at 37°C. Peptides were added as for DMR assays, and internalization responses were recorded for 60 min at 37°C using an EnVision 2104 Multimode plate reader (PerkinElmer). 100 nM GLP-1 was used as a positive control for SNAP-GLP1R internalization. Real-time internalization responses were calculated based on TR-FRET (excitation 340 nm; emission 520 nm and 615 nm), and were expressed as the ratio between donor (terbium) and acceptor (fluorescein) emission. For peptide screening analysis (both DMR and internalization assays), we calculated the area under the curve from the real-time traces. As the magnitude of the responses was variable between orphan receptor targets, particularly for the SNAP-tag based internalization assay where the signal is dependent on receptor surface expression, the AUC values were normalized to their respective plate averages and expressed as fold change. Validation experiments for receptor internalization were performed as above. Internalization data was processed in MS-Excel and area under the curve was used to generate concentration-response curves using GraphPad Prism 7.0. Data represent mean ± standard error of the mean (SEM) from at least 3 biologically independent experiments.
Compound,EC50 (BB3 [1]),EC50 (BB3 [2]),EC50 (BB3 [3]),EC50 (BB3 [4]),EC50 (GPR1 [5]),EC50 (GPR1 [6]),DMR assays Emax (peak or AUC) (GPR68 [7]),Internalization assays Emax (AUC) (GPR68 [8])
CSCC[C@H](NC(=O)[C@H](CC(C)C)NC(=O)[C@H](Cc1c[nH]cn1)NC(=O)CNC(=O)[C@@H](NC(=O)[C@H](C)NC(=O)[C@H](Cc1c[nH]c2ccccc12)NC(=O)[C@H](Cc1c[nH]cn1)NC(=O)[C@H](CC(N)=O)NC(=O)CNC(=O)[C@H](CCCN=C(N)N)NC(=O)[C@@H]1CCCN1C(=O)[C@H](Cc1ccc(O)cc1)NC(=O)[C@H](CCSC)NC(=O)[C@H](CCCCN)NC(=O)[C@@H](NC(=O)[C@H](CC(C)C)NC(=O)[C@@H](NC(=O)[C@@H](NC(=O)CNC(=O)CNC(=O)CNC(=O)[C@H](C)NC(=O)[C@@H]1CCCN1C(=O)[C@H](CC(C)C)NC(=O)[C@@H]1CCCN1C(=O)[C@@H](N)C(C)C)[C@@H](C)O)C(C)C)[C@@H](C)O)C(C)C)C(N)=O [Gastrin-releasing peptide (GRP)],2.04 µM,14.8 µM,43.7 µM,447 nM,0.398 µM,5.5 µM,–,–
RFGIPMDRIGRNRLSNSRG [128 original],–,–,–,–,–,–,893047,8.3
